Entries after “also recorded” stand apart in the source; their conditions may differ.
Columns and labels:
Assay type in all cases: cell-based, mouse
[1] = tested on: EndMT markers (Klf4, Sca1 and Fsp1); experiment: Immunofluorescence analysis of EndMT markers, CCM1 knock out cells; details: CCM1 knockout cells; PTC209 vs DMSO
Experimental: Treatment with PTC209 was performed with the same experimental conditions used for CCM3 model. After treatment cells were analysed by western blot (FIG. 9), real time (FIG. 10) and immunofluorescence (FIG. 11) analysis. […] This observation resembled what was previously observed for human patients as well as for CCM3 mouse model, namely that mutation in Ccm3 led to a more severe phenotype, with higher risk of cerebral haemorrhage and more severe malformations, compare to patients with mutation in Ccm1 and Ccm2 (Denier et al., 2006).

LEF1 = experiment: Immunofluorescence of LEF1, CCM3 knock out cells; details: PTC209 vs DMSO
Source text: The inventors started to analysed interaction between Bmi1 and β-catenin pathway. By immunofluorescence analysis on wild type and CCM3 knock out cells treated with PTC209 and DMSO as control, as already mentioned, the inventors checked expression of LEF1, a transcription factor that is directly activated by β-catenin and is responsible for transcriptional activation of Axin2 (Behrens et al., 1996), to see whether Bmi1 inhibition interfered with β-catenin pathway activation.

[2] = tested on: EndMT markers (Klf4, Sca1 and Fsp1); experiment: Western blot analysis of EndMT markers, wild type and CCM3 knock out immortalized lung endothelial cells; details: 72 hours
Experimental: Cells were seeded 6.3×10^4 cells/cm^2. The day after, PTC209 and UNC1999 were added to the confluent cells. Drugs were left for one or three days depending on the aim of the experiment. Final concentrations used for the two drugs were: 1 uM PTC209 and 5 uM UNC1999.
Confluent cells were lysed with boiling modified Laemi sample Buffer (2% SDS, 20% glycerol, and 125 mM Tris-HCl, pH 6.8). Lysates were incubated for 10 minutes at 100° C. to allow proteins denaturation. Protein concentration was estimated using the BCA Protein Assay Kit (Pierce). Equal amount of proteins was loaded on a gel, separated by SDS-PAGE and transferred to a Protran Nitrocellulose Membrane (Whatman) 0.2 um pores. The membranes were blocked for 1 hour at RT in Tris Buffered Saline (TBS: NaCl 150 mM, Tris-HCl 10 mM pH 7.4) plus 0.1% Tween-20 containing 5% BSA or milk. The membranes were incubated with primary antibodies diluted in TBST (TBS plus 0.1% Tween-20) containing 5% of either BSA or milk overnight at 4° C. Next, membranes were rinsed three times with TBST for 5 minutes each and incubated for 45 minutes at RT with HRP-linked secondary antibodies diluted in TBST containing 5% BSA/milk. Membranes were rinsed three times with TBST for 5 minutes each and specific bindings were detected by enhanced chemiluminescence (ECL) system (Amersham Bioscience) using ChemiDoc XRS gel imaging system (Bio-Rad).
Wild type and CCM3 knock out cells were treated with either PTC209 or DMSO starting from the day after seeding, when cells were confluent. For this experiment cells were lysed for western blot and real-time analysis after 72 hours of treatment to check a long-term effect of PTC209.
To perform these experiments, immortalized lung endothelial cells both wild type and CCM3 knock out were treated, with the same experimental strategy used for PTC209, with UNC1999 for 72 hours and subsequently lysed for western blot and real time analysis. UNC1999 was used in its specific optimal concentration, which was different to PTC209. As control DMSO was given to the cells in a volume equal to the volume of DMSO in which UNC1999 was previously dissolved to rich the optimal concentration.
Briefly, wild type and CCM3 knock out cells were treated with either PTC209, UNC1999 or a combination of the two. PTC209 and UNC1999 were administrated at the same concentration used for the single treatment and DMSO was given as control in a volume equal to the sum of volumes of DMSO in which UNC1999 and PTC209 were previously dissolved.

[3] = tested on: EndMT markers (Klf4, Sca1 and Fsp1); experiment: RT-PCR of EndMT markers, freshly isolated brain endothelial cells knockout for CCM3; details: freshly isolated brain endothelial cells CCM3fl/fl+TAT-Cre; PTC209 72 hours from the day after recombination
Source text: Brain-derived ECs were isolated from VECPAC/CCM3^fl/fl/R26-Confetti. Brains were processed with two different MiltenyiBiotec kits depending on the age at which the mice were sacrificed: “Adult Brain Dissociation Kit”, for […] 7-days old mice, or “Neural Tissue Dissociation Kit” for less than 7-days old mice. All protocols and data sheet are available at www.milteniyibiotec.com.
Recombination of the loxP-flanked genes was induced by treating cells the day after the first splitting (1:2) with 100 ug/mL TAT-Cre-recombinase for 60 minutes in HyClone™ ADCF-MAb medium (GE Healthcare) without serum followed by 100 uM chloroquine for 30 minutes. The cells were washed with HyClone™ ADCF-MAb medium and cultured with complete medium.
RNA extraction was performed both with (A) RNeasy kits (Promega) or (B) RNAeasy Mini Kit (QIAGEN). The latter allows also the extraction of proteins from the same sample. […] For each sample, the expression level was determined with the comparative threshold cycle (Ct) method, and normalized to the housekeeping genes encoding 18S, glyceraldehyde-3-phosphate dehydrogenase (GAPDH) and hypoxanthine-guanine phosphoribosyltransferase (hprt1). Ct or threshold cycle, represents the PCR cycle at which an increase in reporter fluorescence above a base-line signal can first be detect. […]

CCM1 knock out cells = experiment: Immunofluorescence of junction organisation (VE-cadherin, PECAM1), wild type and CCM1 knock out cells
Source text: Also for CCM1 model, the inventors tested the effect of Bmi1 inhibition on junction organisation. The inventors repeated PTC209-treatment on CCM1 model with the same experimental conditions described before, and the inventors analysed VE-cadherin and PECAM1 expression by immunofluorescence analysis (FIG. 12) in parallel with real time analysis (FIG. 13).

Compound: COc1cc(Br)c(Nc2nc(-c3c(C)nc4ncccn34)cs2)c(Br)c1 [PTC209, N-(2,6-dibromo-4-methoxyphenyl)-4-(2-methylimidazo[1,2-a]pyrimidin-3-yl)thiazol-2-amine]
- upregulation of Klf4, Sca1 and Fsp1 (relative fluorescence intensity) [1]: inhibited
- LEF1 (immunofluorescence) (LEF1): reduced
- Klf4 protein up-regulation induced by CCM3 deletion (western blot) ([2]; CCM3 knock out cells): completely rescued
- levels of Klf4 and Sca1 protein in treated CCM3 knock out cells versus wild type cells ([2]; CCM3 knock out cells, 1 uM PTC209): comparable with the levels expressed by wild type cells
- EndMT markers (Klf4, Sca1, Fsp1) protein expression (western blot) ([2]; CCM3 knock out cells, 1 uM PTC209, 5 uM UNC1999, vs DMSO): strongly downregulated; also recorded: inhibition of the upregulation
- Klf4 protein (western blot) ([2]; wild type cells (physiological condition), CCM3 model): not affected
- Klf4 expression (RT-PCR) [3]: not downregulated
- Sca1 and Fsp1 expression (RT-PCR) [3]: strongly reduced
- junction organisation (VE-cadherin, PECAM1 immunostaining) (CCM1 knock out cells; CCM1 knock out cells): visible reorganisation of junctions
- junction organisation (VE-cadherin, PECAM1 immunostaining) (CCM1 knock out cells; wild type cells, CCM1 model): remained unchanged
